{"source": "patent US20160120848A1", "about": "“SPECIFIC CANCER TREATMENT REGIMES WITH GANETESPIB” (SYNTA PHARMACEUTICALS CORP., priority 2013, published 2016)", "key": {"[1]": {"system": "advanced solid tumor malignancies", "test": "Phase I study of ganetespib monotherapy in advanced solid tumor malignancies", "assay_type": "in vivo, patients", "details": "ganetespib monotherapy 75 or 150 mg/m^2, Days 1 and 15 of 3-week cycle", "method": "A total of 3 (three) cohorts are treated in this study. All patients are hospitalized for the duration of Cycle 1, Days 1 through 21.\nIn the first cohort (Cohort 1), patients with advanced solid tumor malignancies are treated with 75 mg/m^2 of ganetespib monotherapy. In the second cohort (Cohort 2), patients with advanced solid tumor malignancies are treated with 150 mg/m^2 of ganetespib monotherapy. In the third cohort (Cohort 3), patients with advanced NSCLC are treated with ganetespib (150 mg/m^2) in combination with docetaxel (75 mg/m^2). In the case of intolerability of the third cohort's combination regimen, in a fourth cohort (Cohort 4), patients with advanced NSCLC are treated with ganetespib (150 mg/m^2) in combination with docetaxel (60 mg/m^2).\nEach cohort enrolls 3 to 6 patients, depending on toxicity and the inclusion of Cohort 4. A total of 9 patients are enrolled at the recommended combination dose level to better characterize the safety and PK profiles. Each cohort consists of a maximum of 6 evaluable patients, except for the recommended combination dose level, which enrolls a total of 9 patients. Patients who discontinue from the study for reasons other than DLT (dose-limiting toxicity) before completing Cycle 1 are replaced. For all cohorts, patients are hospitalized for the duration of Cycle 1, Days 1 through 21. […]"}, "[2]": {"system": "non-small cell lung cancer", "test": "Phase I study of ganetespib with cisplatin/pemetrexed, carboplatin/pemetrexed or carboplatin/paclitaxel", "assay_type": "in vivo, patients", "details": "combination with cisplatin/pemetrexed", "description": "This is a Phase 1, open-label, dose-escalation study in patients with advanced NSCLC with adenocarcinoma histology.\nCohort 1: patients treated with ganetespib, cisplatin and pemetrexed\nCohort 2: patients treated with ganetespib, carboplatin and pemetrexed\nCohort 3: patients treated with ganetespib, carboplatin and paclitaxel\nIn Cohort 1, one treatment cycle consists of treatment with ganetespib, cisplatin and pemetrexed on Day 1, and ganetespib on Day 15\nIn Cohort 2, one treatment cycle consists of treatment with ganetespib, carboplatin and pemetrexed on Day 1, and ganetespib on Day 15\nIn Cohort 3, one treatment cycle consists of treatment with ganetespib, carboplatin and paclitaxel on Day 1, and ganetespib on Day 15\nTreatment cycles are repeated every 3 weeks. The total planned number of combination cycles is 4. Ganetespib is administered on Days 1 and 15 of each cycle; cisplatin and pemetrexed, carboplatin and pemetrexed, or carboplatin and paclitaxel are administered on Day 1 of each cycle. Each agent is administered as a separate infusion (see Dose-Escalation Table below). […]\nDuration of treatment: the duration of the combination treatment for each regimen is 4 treatment cycles, if tolerated. Patients who complete 4 combination-treatment cycles are evaluated for tumor disease response, general performance status and toxicities. […]"}}}
{"smiles": "CC(C)c1cc(-c2n[nH]c(=O)n2-c2ccc3c(ccn3C)c2)c(O)cc1O", "note": "[ganetespib]", "values": [{"measurement": "efficacy", "setting": "[1]", "value": "efficacious"}, {"measurement": "safety profile", "setting": "[1]", "value": "good safety profile"}, {"measurement": "efficacy", "setting": "[2]", "value": "efficacious"}, {"measurement": "safety profile", "setting": "[2]", "value": "good safety profile"}]}
